Active and inactive are the calls of the source.
Columns and labels:
[1] = viability of PTEN-deleted HCT116 cells – cell-based, HCT116 PTEN knockout, dose response (AID 1047); type: functional;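 further: HCT116 colon tumor cells with PTEN knocked out; cells exposed to compound for 60 hours before readout; potency for loss of cell viability measured by luminescence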
[2] = viability of HCT116 lacking mutant beta-catenin – cell-based, human colon tumor, dose response (AID 1045); type: functional;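 further: HCT116 colon tumor cells with beta catenin knocked out; cells exposed to compound for 60 hours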
[3] = target: Induced myeloid leukemia cell differentiation protein Mcl-1 (Homo sapiens, UniProt Q07820); type: functional
Chain of Induced myeloid leukemia cell differentiation protein Mcl-1 (Q07820 whole entry): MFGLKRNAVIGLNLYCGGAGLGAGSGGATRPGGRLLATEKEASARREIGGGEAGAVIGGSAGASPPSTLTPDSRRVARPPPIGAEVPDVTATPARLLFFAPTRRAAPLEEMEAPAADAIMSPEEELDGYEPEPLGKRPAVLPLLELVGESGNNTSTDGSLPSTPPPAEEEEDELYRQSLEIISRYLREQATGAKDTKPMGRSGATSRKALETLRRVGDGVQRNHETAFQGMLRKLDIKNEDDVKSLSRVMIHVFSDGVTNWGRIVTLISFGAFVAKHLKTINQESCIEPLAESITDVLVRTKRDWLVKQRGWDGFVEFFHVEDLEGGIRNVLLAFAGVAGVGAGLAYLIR

[4] = target: T1, Replicative DNA helicase DnaB (Mycobacterium tuberculosis, UniProt P9WMR3); assay: DnaB intein splicing inhibitors, dose response, biochemical, cell-free fluorescence (AID 449749); type: functional
T1 sequence (P9WMR3 whole entry): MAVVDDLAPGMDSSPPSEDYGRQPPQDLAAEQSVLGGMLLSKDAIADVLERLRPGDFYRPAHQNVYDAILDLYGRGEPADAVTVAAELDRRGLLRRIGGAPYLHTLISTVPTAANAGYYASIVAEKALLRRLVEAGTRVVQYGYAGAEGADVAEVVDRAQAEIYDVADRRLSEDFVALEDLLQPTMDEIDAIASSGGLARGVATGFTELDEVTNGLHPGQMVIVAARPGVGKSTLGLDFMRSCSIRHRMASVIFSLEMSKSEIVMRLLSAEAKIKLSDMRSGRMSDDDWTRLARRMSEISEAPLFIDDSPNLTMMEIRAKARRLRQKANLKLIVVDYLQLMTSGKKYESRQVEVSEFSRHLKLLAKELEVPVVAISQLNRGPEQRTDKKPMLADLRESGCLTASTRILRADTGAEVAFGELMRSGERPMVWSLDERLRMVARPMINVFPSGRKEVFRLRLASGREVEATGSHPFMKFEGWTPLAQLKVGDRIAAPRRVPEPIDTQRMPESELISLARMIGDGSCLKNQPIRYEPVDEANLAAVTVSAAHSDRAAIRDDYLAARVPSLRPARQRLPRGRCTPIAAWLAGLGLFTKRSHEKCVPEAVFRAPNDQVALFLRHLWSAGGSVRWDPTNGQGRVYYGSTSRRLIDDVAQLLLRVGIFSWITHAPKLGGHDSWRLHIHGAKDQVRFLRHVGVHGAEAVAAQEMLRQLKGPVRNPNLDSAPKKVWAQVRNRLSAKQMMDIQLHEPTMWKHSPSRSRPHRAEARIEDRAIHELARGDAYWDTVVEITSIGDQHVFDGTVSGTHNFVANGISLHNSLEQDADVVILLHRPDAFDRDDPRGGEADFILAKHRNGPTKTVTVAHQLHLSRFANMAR

Protein RecA = target: T2, Protein RecA (Mycobacterium tuberculosis, UniProt P9WHJ3); assay: Fluorescence Cell-Free Homogeneous Dose Retest to Identify Inhibitors of RecA-Intein Splicing Activity. [Related pubchem assays (depositor defined):AID2097, AID2223, AID489010, AID492950]; type: functional
T2 sequence (P9WHJ3 whole entry): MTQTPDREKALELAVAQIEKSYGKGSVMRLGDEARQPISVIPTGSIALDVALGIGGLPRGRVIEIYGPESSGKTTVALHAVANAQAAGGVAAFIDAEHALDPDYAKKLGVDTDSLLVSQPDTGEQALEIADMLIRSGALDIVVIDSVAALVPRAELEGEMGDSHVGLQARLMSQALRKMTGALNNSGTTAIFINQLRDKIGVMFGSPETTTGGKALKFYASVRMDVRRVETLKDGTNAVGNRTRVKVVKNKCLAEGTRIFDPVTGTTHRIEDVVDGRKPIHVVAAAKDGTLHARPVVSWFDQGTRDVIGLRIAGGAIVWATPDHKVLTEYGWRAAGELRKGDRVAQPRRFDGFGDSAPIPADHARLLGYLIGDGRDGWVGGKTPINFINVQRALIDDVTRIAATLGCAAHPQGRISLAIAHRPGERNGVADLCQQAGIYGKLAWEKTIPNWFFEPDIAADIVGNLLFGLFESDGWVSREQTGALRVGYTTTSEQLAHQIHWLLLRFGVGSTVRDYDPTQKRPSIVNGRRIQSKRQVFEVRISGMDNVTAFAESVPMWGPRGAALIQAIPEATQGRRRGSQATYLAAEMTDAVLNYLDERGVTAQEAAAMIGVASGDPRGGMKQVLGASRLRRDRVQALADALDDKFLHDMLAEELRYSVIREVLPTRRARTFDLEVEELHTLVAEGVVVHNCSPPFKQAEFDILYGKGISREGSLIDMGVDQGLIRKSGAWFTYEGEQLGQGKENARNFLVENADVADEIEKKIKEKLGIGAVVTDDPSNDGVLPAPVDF

[5] = viability loss in HEK293T cells – cell-based, cherry-picks, cytotoxicity control for HIV Vif inhibitor project, dose response (AID 652208); type: functional
HEK293 [6] = assay: cells; details: Homo sapiens
HEK293 [7] = assay: cells; details: Homo sapiens; remark: listed apart in the source
cells [8] = type: functional, cell-based
[9] = target: T3, Trace amine-associated receptor 1 (Homo sapiens, UniProt Q96RJ0); assay: Fluorescence-based cell-based high throughput dose response assay to identify agonists of the human trace amine associated receptor 1 (TAAR1).; type: functional
T3 sequence (Q96RJ0 whole entry): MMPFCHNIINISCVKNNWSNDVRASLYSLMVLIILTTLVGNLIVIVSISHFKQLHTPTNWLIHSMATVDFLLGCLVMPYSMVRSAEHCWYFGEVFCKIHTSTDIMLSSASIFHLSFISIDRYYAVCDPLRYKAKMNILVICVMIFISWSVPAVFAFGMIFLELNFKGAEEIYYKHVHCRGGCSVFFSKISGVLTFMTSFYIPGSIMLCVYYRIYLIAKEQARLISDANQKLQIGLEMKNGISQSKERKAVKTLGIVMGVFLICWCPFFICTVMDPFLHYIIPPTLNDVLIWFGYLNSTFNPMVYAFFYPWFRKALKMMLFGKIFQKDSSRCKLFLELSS

[10] = target: T3, Trace amine-associated receptor 1; assay: Counterscreen for agonists of the human trace amine associated receptor 1 (hTAAR1): Fluorescence-based cell-based high throughput dose response assay to identify hTAAR1 agonist that also desensitize TAAR1 receptor response.; type: functional
cells [11] = type: functional, cell-based; remark: listed apart in the source
Large T antigen = Large T antigen (Simian virus 40, UniProt P03070); type: functional, Betapolyomavirus macacae;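 further: Confirmatory-stage PubChem screen for compounds that inhibit SV40 T antigen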
Chain of Large T antigen (P03070 whole entry): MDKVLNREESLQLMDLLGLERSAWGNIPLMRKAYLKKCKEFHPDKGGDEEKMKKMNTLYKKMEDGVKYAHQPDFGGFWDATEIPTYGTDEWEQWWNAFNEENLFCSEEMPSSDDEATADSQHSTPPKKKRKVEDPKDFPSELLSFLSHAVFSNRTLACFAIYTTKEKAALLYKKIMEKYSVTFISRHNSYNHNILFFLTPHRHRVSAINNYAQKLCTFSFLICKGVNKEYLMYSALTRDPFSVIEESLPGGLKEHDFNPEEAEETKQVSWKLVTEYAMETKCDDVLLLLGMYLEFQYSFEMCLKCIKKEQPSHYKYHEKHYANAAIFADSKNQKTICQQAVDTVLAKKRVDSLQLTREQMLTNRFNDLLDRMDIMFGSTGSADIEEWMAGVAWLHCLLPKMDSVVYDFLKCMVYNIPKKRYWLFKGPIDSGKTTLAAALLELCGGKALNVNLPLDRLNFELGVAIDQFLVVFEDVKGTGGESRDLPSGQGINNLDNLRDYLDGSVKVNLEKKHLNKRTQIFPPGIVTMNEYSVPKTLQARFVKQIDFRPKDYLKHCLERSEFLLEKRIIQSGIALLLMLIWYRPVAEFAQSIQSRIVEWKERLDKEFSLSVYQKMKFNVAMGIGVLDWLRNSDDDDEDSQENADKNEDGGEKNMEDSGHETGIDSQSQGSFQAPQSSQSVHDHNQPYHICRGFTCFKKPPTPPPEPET

[12] = target: T4, Endoribonuclease toxin MazF (Escherichia coli K-12, UniProt P0AE70); assay: activation of MazEF endoribonuclease cleavage – biochemical, fluorescence, single-stranded RNA substrate, uHTS hits, dose response (AID 588481); type: functional
T4 sequence (P0AE70 whole entry): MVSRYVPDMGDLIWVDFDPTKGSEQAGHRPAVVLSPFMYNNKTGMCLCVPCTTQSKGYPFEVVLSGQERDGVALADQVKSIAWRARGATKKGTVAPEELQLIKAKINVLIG

[13] = target: T4, Endoribonuclease toxin MazF; assay: substrate-only fluorescence increase artefacts – biochemical, single-stranded RNase substrate, counter-screen for MazEF activator project, dose response (AID 588502); type: functional
[14] = target: T5, Sentrin-specific protease 1 (Homo sapiens, UniProt Q9P0U3); assay: SENP1 catalytic domain blockers, concentration series – biochemical, kinetic FRET, dose response (AID 651697); type: functional; details: read-out: IC50_Mean
T5 sequence (Q9P0U3 whole entry): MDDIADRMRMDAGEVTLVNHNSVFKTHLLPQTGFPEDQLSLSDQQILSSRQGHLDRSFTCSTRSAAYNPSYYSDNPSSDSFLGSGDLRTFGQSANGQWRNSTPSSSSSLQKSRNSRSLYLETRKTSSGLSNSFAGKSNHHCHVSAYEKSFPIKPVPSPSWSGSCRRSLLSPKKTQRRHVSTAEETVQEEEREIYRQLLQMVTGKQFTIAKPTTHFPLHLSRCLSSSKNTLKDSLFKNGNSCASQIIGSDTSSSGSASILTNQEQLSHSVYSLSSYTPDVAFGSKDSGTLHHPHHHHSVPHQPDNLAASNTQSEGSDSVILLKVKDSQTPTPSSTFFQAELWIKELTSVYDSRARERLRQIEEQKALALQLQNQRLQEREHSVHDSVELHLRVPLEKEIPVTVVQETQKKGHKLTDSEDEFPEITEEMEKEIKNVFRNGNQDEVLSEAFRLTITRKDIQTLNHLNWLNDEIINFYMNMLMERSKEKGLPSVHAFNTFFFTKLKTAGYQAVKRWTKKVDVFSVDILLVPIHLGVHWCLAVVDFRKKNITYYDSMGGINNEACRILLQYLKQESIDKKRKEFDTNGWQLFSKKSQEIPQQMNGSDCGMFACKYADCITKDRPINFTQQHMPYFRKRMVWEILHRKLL

[15] = target: T5, Sentrin-specific protease 1; assay: Dose response confirmation of small molecule inhibitors of the catalytic domain of the SUMO protease, SENP1 in a FRET assay.; type: functional; details: read-out: IC50_Mean
[16] = NIH-3T3 fibroblast cytotoxicity, dose response, cytotoxicity control, cell-based, fluorescence, Alamar Blue, secondary assay (AID 2327); type: functional;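 further: NIH-3T3 mouse fibroblasts cultured with fluconazole at 8 µg/mL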
[17] = tested on: Streptococcus sp. 'group A'; assay: Streptococcus pyogenes SK(-)GAS viability under kanamycin – luminescence, BacTiterGlo, confirmation, counter-screen for streptokinase expression inhibitor project, dose response (AID 1900); type: functional, organism-based
Streptokinase A = target: T6, Streptokinase A (Streptococcus pyogenes serotype M1, UniProt P10520); assay: viability-normalized secreted streptokinase activity reduction – plasminogen activation absorbance, OD405, dose response (AID 1914); type: functional, Streptococcus pyogenes M1 GAS;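 further: secreted streptokinase activity via plasminogen activation per viability signal from cell pellet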
T6 sequence (P10520 whole entry): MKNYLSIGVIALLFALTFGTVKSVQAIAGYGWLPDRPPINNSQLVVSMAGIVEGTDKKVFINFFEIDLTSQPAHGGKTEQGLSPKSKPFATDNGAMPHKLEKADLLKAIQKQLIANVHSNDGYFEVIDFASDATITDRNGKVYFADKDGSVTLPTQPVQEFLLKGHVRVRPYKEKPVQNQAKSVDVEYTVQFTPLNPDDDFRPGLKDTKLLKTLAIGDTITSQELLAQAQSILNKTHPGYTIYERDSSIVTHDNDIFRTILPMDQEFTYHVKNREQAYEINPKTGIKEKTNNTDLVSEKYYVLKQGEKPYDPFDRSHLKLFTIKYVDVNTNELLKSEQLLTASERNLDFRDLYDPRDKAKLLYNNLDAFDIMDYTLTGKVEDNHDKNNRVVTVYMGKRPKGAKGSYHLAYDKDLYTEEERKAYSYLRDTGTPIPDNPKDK

[18] = fluconazole-exposed Candida albicans growth modulators – fluorescence, retest, confirmation (AID 2467); type: functional, cell-based
Streptococcus = assay: GAS UMAA2166 growth inhibition – luminescence, BacTiterGlo, counter-screen for streptokinase expression inhibitor project, dose response (AID 1915); type: functional, organism-based;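 further: potency for reduction of bacterial viability or growth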
[19] = target: Heat shock protein HSP 90-alpha (Homo sapiens, UniProt P07900); type: functional, organism-based
[20] = target: T7, Polyadenylate-binding protein 1 (Homo sapiens, UniProt P11940); assay: MLLE binding blockers, Cy5 peptide tracer – biochemical, fluorescence polarization, Cy5-PAM2 peptide, secondary, miRNA deadenylation inhibitor project, dose response (AID 602260); type: functional; details: read-out: IC50_Mean
T7 sequence (P11940 whole entry): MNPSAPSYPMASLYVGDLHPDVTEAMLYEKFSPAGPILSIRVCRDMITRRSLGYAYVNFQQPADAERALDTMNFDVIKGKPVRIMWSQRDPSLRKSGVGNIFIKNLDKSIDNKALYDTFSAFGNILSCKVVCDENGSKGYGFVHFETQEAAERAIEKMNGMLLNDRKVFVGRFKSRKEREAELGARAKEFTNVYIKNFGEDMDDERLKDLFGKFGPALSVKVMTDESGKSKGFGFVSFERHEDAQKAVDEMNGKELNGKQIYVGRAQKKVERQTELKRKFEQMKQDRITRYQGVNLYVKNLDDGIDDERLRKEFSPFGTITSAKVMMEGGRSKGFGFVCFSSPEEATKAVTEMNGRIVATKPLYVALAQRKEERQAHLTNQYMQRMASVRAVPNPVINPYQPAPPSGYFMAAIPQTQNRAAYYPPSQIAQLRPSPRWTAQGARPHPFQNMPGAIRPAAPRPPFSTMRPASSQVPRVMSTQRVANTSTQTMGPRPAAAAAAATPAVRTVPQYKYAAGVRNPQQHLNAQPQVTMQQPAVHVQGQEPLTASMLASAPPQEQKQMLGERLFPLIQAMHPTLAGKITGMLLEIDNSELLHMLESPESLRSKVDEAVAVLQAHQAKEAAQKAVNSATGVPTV

[21] = reduction of Shn3 3'UTR-driven luciferase in osteoblasts – cell-based, Clone20 osteoblasts, firefly luciferase, cherry-picked, dose response (AID 624132); type: functional;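 further: firefly luciferase luminescence from reporter carrying the Shn3 3'UTR in osteoblasts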
[22] = target: T7, Polyadenylate-binding protein 1; assay: MLLE domain peptide-binding blockers, IC50 – biochemical, fluorescence polarization, FITC-PAM2 peptide, dose response (AID 602259); type: functional; details: read-out: IC50_Mean
[23] = loss of viability in HepG2 cells – cell-based, CellTiter-Glo, cherry-picked, cytotoxicity control for Shn3 inhibitor project, dose response (AID 624134); type: functional
[24] = non-specific 3'UTR reporter inhibition in Clone20-Shn3RL – cell-based, Renilla luciferase, cherry-picked, counter-screen for Shn3 inhibitor project, dose response (AID 624133); type: functional
Albumin = Albumin (Bos taurus, UniProt P02769); assay: Counterscreen for inhibitors of T-cell receptor (TCR)-CD3 interaction: Fluorescence-based biochemical high throughput dose response assay to identify inhibitors of T-cell receptor (TCR)-CD3 interaction using a TAMRA-labeled BSA probe.; type: functional
Chain of Albumin (P02769 whole entry): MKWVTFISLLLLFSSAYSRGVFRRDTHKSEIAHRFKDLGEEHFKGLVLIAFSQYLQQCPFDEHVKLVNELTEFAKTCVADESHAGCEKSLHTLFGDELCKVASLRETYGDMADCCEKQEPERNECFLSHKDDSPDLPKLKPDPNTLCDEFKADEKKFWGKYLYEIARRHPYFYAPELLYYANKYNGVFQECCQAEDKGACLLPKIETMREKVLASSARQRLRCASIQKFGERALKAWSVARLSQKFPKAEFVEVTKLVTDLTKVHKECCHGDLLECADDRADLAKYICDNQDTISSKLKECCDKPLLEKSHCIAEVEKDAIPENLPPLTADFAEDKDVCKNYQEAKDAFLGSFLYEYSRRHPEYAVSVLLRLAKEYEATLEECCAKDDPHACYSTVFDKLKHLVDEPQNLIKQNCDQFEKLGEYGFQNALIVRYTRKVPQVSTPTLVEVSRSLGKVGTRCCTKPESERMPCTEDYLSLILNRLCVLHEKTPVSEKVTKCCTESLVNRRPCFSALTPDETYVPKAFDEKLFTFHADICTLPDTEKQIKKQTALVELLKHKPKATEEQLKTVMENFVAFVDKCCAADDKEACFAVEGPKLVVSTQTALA

## COc1ccc(NC(=O)Cn2ncc(Cl)c(Cl)c2=O)cc1S(=O)(=O)N1CCOCC1
[1]
  EC50: 7.27 µM (active)
[2]
  EC50: 5.71 µM (active)
[3]
  IC50: 6.5 µM (active)
[4]
  AC50: 44.2 µM (active)
Protein RecA
  EC50: 10.1 µM (active)
[5]
  AC50: 10.8 µM (active)
HEK293 [6]
  EC50: > 59.6 µM (inactive)
HEK293 [7]
  EC50: > 59.6 µM (inactive)

## C/C(=N\CCc1ccccc1)C1=C(O)CCC1=O
Cells [8]
  IC50: > 29.9 µM (inactive)
[9]
  EC50: 1.94 µM (active)
[10]
  IC50: 8.63 µM (active)
Cells [11]
  EC50: > 29.9 µM (inactive)

## CC(C)(C)OC(=O)N/N=C/c1ccc(N2CCOCC2)s1
Large T antigen
  IC50: 13.2 µM (active)
[12]
  EC50: > 99 µM (inactive)
[13]
  EC50: 46.9 µM (inactive)
[14]
  IC50: 8.28 µM (active)
[15]
  IC50: 11.9 µM (active)

## Oc1nncc2c3ccccc3n(Cc3cccc(Cl)c3)c12
[14]
  IC50: 4.55 µM (active)
[15]
  IC50: 4.44 µM (active)

## CCCOC1CCCN(C(=O)c2cc(Cl)c(Cl)cc2C(=O)O)C1 (stereo not drawn)
Cells [8]
  IC50: > 29.9 µM (inactive)
[9]
  EC50: 8.64 µM (active)
[10]
  IC50: > 29.9 µM (inactive)
Cells [11]
  EC50: > 29.9 µM (inactive)

## Cc1ccc(C(c2cc(Cl)c3cccnc3c2O)N2CCN(C)CC2)cc1 (stereo not drawn)
[16]
  EC50: 3.84 µM (inconclusive)
[17]
  EC50: 1.49 µM (active)
Streptokinase A
  EC50: > 150 µM (not active)
[18]
  EC50: 0.374 µM (active)
Streptococcus
  EC50: 15.3 µM (active)
[4]
  AC50: > 380 µM (inactive)
[19]
  AC50: 1.59 µM (active)
Protein RecA
  EC50: 1.96 µM (active)
[20]
  IC50: > 66 µM (inactive)
[21]
  AC50: 5.54 µM (active)
[22]
  IC50: > 66 µM (inactive)
[23]
  AC50: 35.2 µM (active)
[24]
  AC50: 16.4 µM (active)
[5]
  AC50: > 52 µM (inactive)

## CCC1=NN(C(=O)c2cccc([N+](=O)[O-])c2)C(O)(c2ccc(C)cc2)C1 (stereo not drawn)
Albumin
  IC50: > 94.1 µM (inactive)

Reference: ChEMBL document CHEMBL1201862, “PubChem BioAssay data set” (2004)
